Assay results published in patent US12629374B2, “Antimalarial agents” (Merck Sharp & Dohme LLC, priority 2020, dated 2026).
Where two headings read alike, the source gives them in different places.

System: ring stage parasites
Assay: Parasite growth potency assay, 72 hours, LDH readout
Format: cell-based
Details: parasite growth measured by LDH assay after 72 hours at 37° C., 0.7% rings, 2% haematocrit, read-out: EC50
Procedure, shortened: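 Parasite growth was quantified by LDH assay after a −80 °C freeze-thaw. Before that, compound was incubated for 72 h at 37 °C under humidified gas with ring-stage cultures adjusted to 0.7% parasitemia and 2% haematocrit in serum- and albumax-supplemented RPMI-Hepes.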

Row | Structure (SMILES) | EC50 (72 h) [nM] | other results
1 | CCC1(C)CC(=O)N([C@H](CCOC)c2cccc(C(=O)N[C@@H]3c4ccccc4C[C@@]3(C)O)c2)C(=N)N1 (stereo partly drawn) [Example 196C, 3-[(1R)-1-(4-ethyl-2-imino-4-methyl-6-oxo-hexahydropyrimidin-1-yl)-3-methoxy-propyl]-N-[(1R,2R)-2-hydroxy-2-methyl-indan-1-yl]benzamide] | – | EC50: 7.4 nM
2 | CCC1(CC)CC(=O)N(Cc2cccc(C(=O)NC3CC(C)(C)Oc4ccccc43)c2)C(=N)N1 (single isomer, unassigned) [Example 51A, [1-[[3-[(2,2-dimethylchroman-4-yl)carbamoyl]phenyl]methyl]-4,4-diethyl-6-oxo-hexahydropyrimidin-2-ylidene]ammonium; 2,2,2-trifluoroacetate] | – | EC50 (trifluoroacetate): 91.9 nM
3 | CCC1(CC)CC(=O)N(C(CC(OC)C(F)(F)F)c2cccc(C(=O)N[C@@H]3c4ccccc4C[C@H]3O)c2)C(=N)N1 (single isomer, unassigned) [Example 238C] | – | EC50: 2.32 nM
4 | CCC1(CC)CC(=O)N(Cc2cc(C(=O)N[C@H]3C[C@H](C(F)(F)F)Oc4ccccc43)ccn2)C(=N)N1 [Example 134, [4,4-diethyl-6-oxo-1-[[4-[[(2R,4S)-2-(trifluoromethyl)chroman-4-yl]carbamoyl]pyridin-1-ium-2-yl]methyl]hexahydropyrimidin-2-ylidene]ammonium; 2,2,2-trifluoroacetate] | 8.6 | –
5 | CCC1(CC)CC(=O)N(Cc2cccc(C(=O)N[C@@H]3c4ccccc4OCC3(C)C)c2)C(=N)N1 (stereo in doubt) [Example 216, 3-[(4,4-diethyl-2-imino-6-oxo-hexahydropyrimidin-1-yl)methyl]-N-(3,3-dimethylchroman-4-yl)benzamide] | 0.5 | –
6 | CCOCC[C@H](c1cccc(C(=O)N[C@@H]2c3ccccc3C[C@H]2O)c1)N1C(=N)NC(C)(C)CC1=O [Example 171, [1-[3-ethoxy-1-[3-[[(1R,2R)-2-hydroxyindan-1-yl]carbamoyl]phenyl]propyl]-4,4-dimethyl-6-oxo-hexahydropyrimidin-2-ylidene]ammonium; 2,2,2-trifluoroacetate] | 5.2 | –
7 | CCC1(CC)NC(=N)N([C@H](CCOC)c2cccc(C(=O)N[C@@H]3c4ccccc4C[C@H]3O)c2)C(=O)C1C (stereo partly drawn) [Example 227A, 3-[(1R)-1-(4,4-diethyl-2-imino-5-methyl-6-oxo-hexahydropyrimidin-1-yl)-3-methoxy-propyl]-N-[(1R,2R)-2-hydroxyindan-1-yl]benzamide] | 1.25 | –
8 | CCC1(CC)CC(=O)N(Cc2cccc(C(=O)N[C@H]3CCOc4ccc(Cl)cc43)c2)C(=N)N1 (stereo in doubt) [Example 215B, N-(6-chlorochroman-4-yl)-3-[(4,4-diethyl-2-imino-6-oxo-hexahydropyrimidin-1-yl)methyl]benzamide] | 3.7 | –
9 | CCC1(CC)CC(=O)N([C@H](CCOC)c2cc(F)cc(C(=O)N[C@@H]3c4ccccc4C[C@H]3O)c2)C(=N)N1 [Example 138, [4,4-diethyl-1-[1-[3-fluoro-5-[[(1R,2R)-2-hydroxyindan-1-yl]carbamoyl]phenyl]-3-methoxy-propyl]-6-oxo-hexahydropyrimidin-2-ylidene]ammonium; 2,2,2-trifluoroacetate] | 2.7 | –
10 | CCC1(CC)CC(=O)N(Cc2cccc(C(=O)N[C@H]3CCc4ccccc43)c2)C(=N)N1 [Example 77, [4,4-diethyl-1-[[3-[[(1S)-indan-1-yl]carbamoyl]phenyl]methyl]-6-oxo-hexahydropyrimidin-2-ylidene]ammonium; 2,2,2-trifluoroacetate] | 14.7 | –
11 | CCC1(CC)CC(=O)N(C(CCOC)c2ccc(C(F)(F)F)c(C(=O)N[C@@H]3c4ccccc4OC(C)(C)[C@H]3O)c2)C(=N)N1 (stereo partly drawn) [Example 246, 5-[1-(4,4-diethyl-2-imino-6-oxo-hexahydropyrimidin-1-yl)-3-methoxy-propyl]-N-[(3S,4R)-3-hydroxy-2,2-dimethyl-chroman-4-yl]-2-(trifluoromethyl)benzamide] | 1.74 | –
